Tests used:
Format in all cases: in vivo, Kunming mice
MDA = MDA content in lung tissue; conditions: after drug treatment, compared with LPS group
Protocol: (§1) A total of 144 SPF-grade healthy Kunming mice, aged 5-7 weeks and weighing 18-22 g, are weighed and randomly allocated into six experimental groups: control group (NS), model group (LPS), dexamethasone group (DEX, […] per kilogram abbreviated as mg/kg), genipin beta-methyl derivative low-dose group (12.5 mg/kg), genipin beta-methyl derivative medium-dose group (25 mg/kg), and genipin beta-methyl derivative high-dose group (50 mg/kg), 24 animals per group, in which 12 animals are used to take lung tissue for the detection of other indicators, and another 12 animals are used to collect BALF. […]
(§2) Samples are collected 24 hours after the animal model is established. […] Lung tissues are collected and the whole lung wet weight is measured. […] After tidying, the lungs are photographed, excess tissues such as the trachea are cleared away, and the wet weight of the whole lung is measured to calculate the lung index. • (3) The upper lobe of the left lung is fixed in 4% neutral paraformaldehyde, fixed for 24 hours, paraffin-embedded and sectioned for HE staining. • (4) The remaining lung tissues are put into centrifugal tubes separately, quickly frozen in liquid nitrogen, and then stored at −80° C. after the experiment, which is used for the detection of MDA, SOD, western blotting (WB) and reverse transcription polymerase chain reaction (RT-PCR). […]

Nrf2 = Nrf2 protein in lung tissue by WB
Protocol: The dosage is converted according to the weight of the mice, and the gavage volume is 20 milliliters per kilogram (mL/kg), and the gavage is continued for 3 days. One hour after the gavage on the third day, the ALI model is established by tracheal instillation of LPS solution. […] After the mice are awake, they are raised as usual. 2.3 Treatment of Experimental Animals and Collection of Lung Tissue Specimens
Samples are collected 24 hours after the animal model is established. The mice are weighed and 12 mice in each group are sacrificed. Lung tissues are collected and the whole lung wet weight is measured. […] After tidying, the lungs are photographed, excess tissues such as the trachea are cleared away, and the wet weight of the whole lung is measured to calculate the lung index. • (3) The upper lobe of the left lung is fixed in 4% neutral paraformaldehyde, fixed for 24 hours, paraffin-embedded and sectioned for HE staining. • (4) The remaining lung tissues are put into centrifugal tubes separately, quickly frozen in liquid nitrogen, and then stored at −80° C. after the experiment, which is used for the detection of MDA, SOD, western blotting (WB) and reverse transcription polymerase chain reaction (RT-PCR). […]
(§3) The lung tissue is taken out from −80° C., and its weight is accurately measured. […]

Keap1 = Keap1 gene expression in lung tissue by qRT-PCR
Protocol: as §1, §2

IkB-α = IkB-α mRNA in lung tissue by qRT-PCR; conditions: Gen-17 (12.5, 25, 50 mg/kg gavage) compared with LPS group (P<0.001)
Protocol: as §1, §2

IKKα/β = IKKα/β mRNA in lung tissue by qRT-PCR; conditions: Gen-17 (12.5, 25, 50 mg/kg gavage) compared with LPS group (P<0.001)
Protocol: as §1, §2

[1] = test system: p38 phosphorylated protein; experiment: p38 phosphorylated protein in lung tissue by WB
Protocol: A total of 144 SPF-grade healthy Kunming mice, aged 5-7 weeks and weighing 18-22 g, are weighed and randomly allocated into six experimental groups: control group (NS), model group (LPS), dexamethasone group (DEX, […] per kilogram abbreviated as mg/kg), genipin beta-methyl derivative low-dose group (12.5 mg/kg), genipin beta-methyl derivative medium-dose group (25 mg/kg), and genipin beta-methyl derivative high-dose group (50 mg/kg), 24 animals per group, in which 12 animals are used to take lung tissue for the detection of other indicators, and another 12 animals are used to collect BALF.
All mice are gavaged with a same volume of 0.9% normal saline once a day in the NS group and the LPS group, DEX solution (0.39 mg/kg) is gavaged once a day in the DEX group, low-dose Gen-17 solution (12.5 mg/kg) is gavaged once a day in the medium-dose Gen-17 group, medium-dose Gen-17 solution (25 mg/kg) is gavaged once a day in the high-dose Gen-17 group, and high-dose Gen-17 solution (50 mg/kg) is gavaged once a day in the high-dose Gen-17 group. The dosage is converted according to the weight of the mice, and the gavage volume is 20 milliliters per kilogram (mL/kg), and the gavage is continued for 3 days. […]
as §2, §3

iNOS = iNOS mRNA in lung tissue by qRT-PCR; conditions: Gen-17 (12.5, 25, 50 mg/kg gavage) compared with LPS group (P<0.001)
Protocol: as §1, §2

COC(=O)C1=CO[C@@H](OC)[C@@H]2C(COC(=O)c3cccc(Br)c3)=CC[C@H]12 [Gen-17, genipin beta-methyl derivative]
MDA content in the lung tissue homogenate (MDA): reduce the MDA content
expression of Nrf2 protein in lung tissue, overall result (Nrf2; Gen-17 12.5, 25, 50 mg/kg gavage, ALI mice): upregulate the expression of Nrf2 and HO-1 protein
expression of Nrf2 protein in lung tissue (increase) (Nrf2; medium-dose Gen-17 25 mg/kg gavage, compared with LPS group (P<0.05)): statistically significant
expression of Keap1 gene in lung tissue (Keap1; Gen-17 groups (12.5, 25, 50 mg/kg gavage) compared with DEX group (P<0.001)): significantly increased
expression of Keap1 gene in lung tissue (Keap1; Gen-17 groups (12.5, 25, 50 mg/kg gavage) compared with NS group): significantly increased (P<0.001)
mRNA expression of IkB-α in lung tissue (IkB-α): significantly reduce the expression
mRNA expression of IKKα/β in lung tissue (IKKα/β): significantly reduce the expression
expression of phosphorylated protein p38 in lung tissue ([1]; Gen-17 groups (12.5, 25, 50 mg/kg gavage) compared with DEX group (P>0.05)): no statistically significant change
expression of p38 phosphorylated protein in lung tissue ([1]; after drug treatment, compared with LPS group): down-regulate the expression of p38, ERK and JNK proteins
expression of p38 phosphorylated protein in lung tissue, statistical significance of decrease ([1]; low-dose Gen-17 12.5 mg/kg gavage, compared with LPS group, excepted from significance (P<0.05)): except for the low-dose Gen-17 group
mRNA expression of iNOS in lung tissue (iNOS): significantly reduce the expression

From US12458621B1, “Application of genipin beta-methyl derivative gen-17 in preparation of drug for prevention and treatment of acute severe pneumonia” (KUNMING MEDICAL UNIVERSITY, priority 2024, dated 2025)
